Measurements reported in patent US11890288B2, “Sulfonamide or sulfinamide compound having effect of inducing BRD4 protein degradation and pharmaceutical use thereof” (MITSUBISHI TANABE PHARMA CORPORATION, priority 2020, dated 2024).
Marks after values point to notes of the source that are not given here.

Assays:
[1] = test system: human acute myeloid leukemia MV-4-11 cell transplanted mouse; assay: Antitumor effect of 1 week intermittent administration to MV-4-11 cell transplanted mouse (tail vein, days 1 and 8); assay type: in vivo; conditions: tumor weight on day 15
Description: The in vivo antitumor effect of the compound of the present invention was studied using human acute myeloid leukemia MV-4-11 cell transplanted mouse. MV-4-11 cells were subcutaneously transplanted into the inguinal region of male, 6-week-old BALB/c nude mouse (5×10^6 cells/mouse). The compound of the present invention was administered into the tail vein on days 1 and 8 from the time point when the assumed tumor volume determined from ½ab^2 (a is major axis and b is minor axis of tumor) reached about 200 mm^3 (day 1). The control group was administered with a solvent, 10% Kolliphor ELP/5% ethanol/85% saline solution. On day 15, the tumor was isolated, the weight was measured, and the tumor growth inhibitory rate IR (%) was calculated by the following formula. tumor growth inhibitory rate IR (%)={1−(average tumor weight of administration group/average tumor weight of nonadministration control group)}×100(%)

[2] = test system: human diffuse large B-cell lymphoma SU-DHL-6 cell; assay: Cytotoxic action on SU-DHL-6 cells (WST-8, 96 hr); assay type: cell-based; conditions: SU-DHL-6, 96 hr
Description: The cytotoxic action of the compound of the present invention against human cancer cells was evaluated in vitro. In this experiment, (+)-JQ1 (Nature volume 468, pages 1067-1073 (23 Dec. 2010)) known to have an inhibitory activity on the binding of BRD4 protein and a ligand therefor was used as a positive control drug. Respective cells were suspended in 10% FBS/RPMI1640, seeded in a 96 well plate and cultured at 5% CO2, 37° C. overnight. A test compound dissolved in DMSO was diluted with 10% FBS/RPMI1640 and added and the cells were further cultured for 96 hr. After culturing, the viable cell number was measured using a cell number measurement WST-8 kit (Kishida Chemical Co., Ltd.). As a control, the measurement was performed under conditions free of the test compound. The cytotoxic activity of the compound of the present invention against human prostate cancer LNCaP cells is shown in IC50 value in Table 1. The IC50 value is a concentration of the compound showing 50% cell survival rate when the cell survival rate thereof under compound untreated condition is 100%. It was calculated from the straight line connecting the cell survival rate at two points enclosing the 50% cell survival rate and the compound concentration. […]

With COC(=O)C[C@@H]1N=C(c2ccc(-c3ccc(C(=O)NCc4ccc(S(=O)(=O)Nc5ccc(C)c6c(C#N)c[nH]c56)cc4)cc3)cc2)c2c(sc(C)c2C)-n2c(C)nnc21 [Example 1, methyl [(6S)-4-{4′-[({4-[(3-cyano-4-methyl-1H-indol-7-yl)sulfamoyl]phenyl}methyl)carbamoyl][1,1′-biphenyl]-4-yl}-2,3,9-trimethyl-6H-thieno[3,2-f][1,2,4]triazolo[4,3-a][1,4]diazepin-6-yl]acetate] the “tumor growth inhibitory rate” value ([1]; 4 mg/kg/day) was 56** %, the “tumor growth inhibitory rate” value ([1]; 12.5 mg/kg/day) was 92** % and the IC50 [2] was 0.44 nM.
